The target of one assay is Insulin receptor (Homo sapiens, UniProt P06213). As to the kind of experiment: Inhibition of IRK.
Assay [1] addresses T1, Tyrosine-protein kinase ITK/TSK (Homo sapiens, UniProt Q08881).
T1 sequence (Q08881 whole entry): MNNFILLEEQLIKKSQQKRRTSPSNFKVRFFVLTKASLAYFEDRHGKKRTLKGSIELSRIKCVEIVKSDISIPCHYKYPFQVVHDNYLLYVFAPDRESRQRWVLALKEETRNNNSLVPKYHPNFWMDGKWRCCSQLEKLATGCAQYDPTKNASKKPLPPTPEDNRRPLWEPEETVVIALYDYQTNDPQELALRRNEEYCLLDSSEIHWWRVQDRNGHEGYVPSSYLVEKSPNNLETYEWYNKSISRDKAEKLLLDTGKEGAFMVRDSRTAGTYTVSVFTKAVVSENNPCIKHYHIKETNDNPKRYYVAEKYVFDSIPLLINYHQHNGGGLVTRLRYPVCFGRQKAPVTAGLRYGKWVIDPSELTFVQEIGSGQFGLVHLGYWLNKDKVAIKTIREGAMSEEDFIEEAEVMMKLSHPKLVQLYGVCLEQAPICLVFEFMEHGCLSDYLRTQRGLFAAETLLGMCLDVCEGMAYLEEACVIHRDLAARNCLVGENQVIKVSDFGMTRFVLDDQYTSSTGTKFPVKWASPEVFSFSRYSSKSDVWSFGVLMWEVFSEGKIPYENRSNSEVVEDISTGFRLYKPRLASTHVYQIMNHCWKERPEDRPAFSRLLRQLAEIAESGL
As to the kind of experiment: Inhibition of ITK by DELFIA method.

Assay [2] is described as follows: Selectivity ratio of IC50 for IRK to IC50 for ITK.
Assay [3] concerns the target T1, Tyrosine-protein kinase ITK/TSK. Kind of assay: Inhibition of human ITK expressed in chicken DT40 cells assessed as calcium influx by FLIPR. It counts as cell-based.

Some results are limits rather than exact numbers.

What is called IC50 is the concentration that gives 50% inhibition.

Chain of Insulin receptor (P06213 28-758 limits assumed): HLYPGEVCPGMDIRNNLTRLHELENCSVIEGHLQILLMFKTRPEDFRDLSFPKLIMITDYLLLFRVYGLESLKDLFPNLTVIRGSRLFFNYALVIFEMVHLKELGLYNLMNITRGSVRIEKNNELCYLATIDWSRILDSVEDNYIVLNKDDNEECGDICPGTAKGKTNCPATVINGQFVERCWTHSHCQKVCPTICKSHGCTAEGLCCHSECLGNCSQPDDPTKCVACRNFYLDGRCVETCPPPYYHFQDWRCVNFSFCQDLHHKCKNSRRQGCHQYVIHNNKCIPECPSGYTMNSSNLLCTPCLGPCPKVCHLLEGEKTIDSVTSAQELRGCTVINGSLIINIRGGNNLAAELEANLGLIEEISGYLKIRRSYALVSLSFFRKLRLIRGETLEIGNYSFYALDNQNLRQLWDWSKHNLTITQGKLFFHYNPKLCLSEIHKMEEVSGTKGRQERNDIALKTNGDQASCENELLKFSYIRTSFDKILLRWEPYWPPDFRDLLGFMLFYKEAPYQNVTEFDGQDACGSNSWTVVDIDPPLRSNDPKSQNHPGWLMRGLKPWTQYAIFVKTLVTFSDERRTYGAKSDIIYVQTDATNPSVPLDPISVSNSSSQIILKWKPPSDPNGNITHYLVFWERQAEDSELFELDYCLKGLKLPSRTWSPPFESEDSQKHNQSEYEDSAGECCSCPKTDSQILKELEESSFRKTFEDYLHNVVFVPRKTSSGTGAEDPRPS
Chain of Insulin receptor (P06213 763-1382 limits assumed): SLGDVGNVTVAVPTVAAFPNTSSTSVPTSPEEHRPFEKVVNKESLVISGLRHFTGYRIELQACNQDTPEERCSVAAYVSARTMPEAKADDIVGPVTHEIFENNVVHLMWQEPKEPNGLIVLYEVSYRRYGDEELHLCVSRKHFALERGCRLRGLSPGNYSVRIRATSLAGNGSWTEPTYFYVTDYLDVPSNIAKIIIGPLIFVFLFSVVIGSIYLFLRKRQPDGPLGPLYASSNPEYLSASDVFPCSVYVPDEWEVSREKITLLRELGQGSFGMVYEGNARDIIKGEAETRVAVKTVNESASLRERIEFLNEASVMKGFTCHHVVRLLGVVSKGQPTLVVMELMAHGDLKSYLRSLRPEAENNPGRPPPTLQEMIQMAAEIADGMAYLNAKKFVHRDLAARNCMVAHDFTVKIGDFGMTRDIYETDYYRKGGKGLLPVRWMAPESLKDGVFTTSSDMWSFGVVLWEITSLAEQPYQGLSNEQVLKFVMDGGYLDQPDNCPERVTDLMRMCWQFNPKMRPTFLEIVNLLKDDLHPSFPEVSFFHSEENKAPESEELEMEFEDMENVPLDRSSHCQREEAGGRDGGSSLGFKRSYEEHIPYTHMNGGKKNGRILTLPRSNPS

For `CN(C(=O)c1ccccc1)c1ccc2c(c1)[nH]/c(=N\C(=O)c1ccc(N3CCCC3)s1)n2CCC(N)=O`, the concentration for half-maximal inhibition (IC50) on Insulin receptor is > 6 µM. Take `CN(C(=O)c1ccccc1)c1ccc2c(c1)nc(NC(=O)c1ccc(C#N)cc1)n2CCC(N)=O`: the IC50 on Insulin receptor was > 6 µM.

`CN(C(=O)c1ccccc1)c1ccc2c(c1)nc(NC(=O)c1ccsc1)n2CCC(N)=O` yielded an IC50 at Insulin receptor of 0.24 µM.

With `CN(C(=O)c1ccccc1)c1ccc2c(c1)[nH]/c(=N\C(=O)c1ccc(-c3ccc(C#N)nc3)s1)n2CCC(N)=O`, the IC50 at Insulin receptor was > 6 µM. In the case of `CN(C(=O)c1ccccc1)c1ccc2c(c1)[nH]/c(=N\C(=O)c1cnco1)n2CCC(N)=O`, the results for the IC50 (in assay [1]; at Insulin receptor; in assay [3]) were 180 nM, > 6 µM and > 5 µM, respectively. Moreover, the Ratio IC50 in assay [2] is > 1000.

Take `CN(C(=O)c1ccccc1)c1ccc2c(c1)nc(NC(=O)c1ccc(N3CCOCC3)s1)n2CCC(N)=O`: the IC50 is 74 nM in assay [1], > 6 µM at Insulin receptor and > 3.2 µM in assay [3]. `CN(C(=O)c1ccccc1)c1ccc2c(c1)nc(NC(=O)c1ccc(-c3ccnc(C#N)c3)s1)n2CCC(N)=O`: the IC50 on Insulin receptor is > 6 µM.

Take `CN(C(=O)c1ccccc1)c1ccc2c(c1)[nH]/c(=N\C(=O)c1ccc(-c3ccncc3)s1)n2CCC(N)=O`: the IC50 on Insulin receptor is > 6 µM. In the case of `CN(C(=O)c1ccccc1)c1ccc2c(c1)[nH]/c(=N\C(=O)c1ccc(-c3ccccc3)s1)n2CCC(N)=O`, the IC50 against Insulin receptor was > 6 µM. Take `CN(C(=O)c1ccccc1)c1ccc2c(c1)nc(NC(=O)c1ccc(N3CCNCC3)s1)n2CCC(N)=O`: the IC50 in assay [1] is 150 nM; on Insulin receptor, > 6 µM; in assay [3], > 3.2 µM. Turning to `CC(C)C(=O)c1ccc(C(=O)Nc2nc3cc(N(C)C(=O)c4ccccc4)ccc3n2CCC(N)=O)s1`, the IC50 at Insulin receptor is > 6 µM. The same measure, in the same setting: in the case of `CN(C(=O)c1ccccc1)c1ccc2c(c1)[nH]/c(=N\C(=O)c1ccc(-c3ncco3)s1)n2CCC(N)=O` it was > 6 µM. The same measure, in the same setting: then `CN(C(=O)c1ccccc1)c1ccc2c(c1)[nH]/c(=N\C(=O)c1ccc(-c3cncc(C#N)c3)s1)n2CCC(N)=O`, with > 6 µM; and `CN(C(=O)c1ccccc1)c1ccc2c(c1)nc(NC(=O)c1ccc(Br)cc1)n2CCC(N)=O`, with > 6 µM; and `CN(C(=O)c1ccccc1)c1ccc2c(c1)[nH]/c(=N\C(=O)c1ccc(-c3csc(N)n3)s1)n2CCC(N)=O`, with > 6 µM.

For the compound `CN(C(=O)c1ccccc1)c1ccc2c(c1)[nH]/c(=N\C(=O)c1cccc(-c3ccccc3)c1)n2CCC(N)=O`, on Insulin receptor, the IC50 was > 6 µM. On the same count and under the same terms, in the case of `CN(C(=O)c1ccccc1)c1ccc2c(c1)nc(NC(=O)c1ccc3ccccc3c1)n2CCC(N)=O` it was > 6 µM. The same measure, in the same setting: then `CN(C(=O)c1ccccc1)c1ccc2c(c1)[nH]/c(=N\C(=O)c1cccc3ccccc13)n2CCC(N)=O`, with 5.8 µM. As to `COc1ccc(C(=O)Nc2nc3cc(N(C)C(=O)c4ccccc4)ccc3n2CCC(N)=O)cc1`, the values for the IC50 (in assay [1]; at Insulin receptor; in assay [3]) were 170 nM, > 6 µM and > 5 µM, respectively. Taken in the same sequence, the figures for `CN(C(=O)c1ccccc1)c1ccc2c(c1)nc(NC(=O)c1cscn1)n2CCC(N)=O` were 340 nM, 6.1 µM and > 5 µM. As to `CN(C(=O)c1ccccc1)c1ccc2c(c1)nc(NC(=O)c1ccc(-c3ccnc(F)c3)s1)n2CCC(N)=O`, the 50% inhibitory concentration (IC50) at Insulin receptor is > 6 µM. Still for that read-out and setting: in the case of `CC(=O)c1ccc(C(=O)Nc2nc3cc(N(C)C(=O)c4ccccc4)ccc3n2CCC(N)=O)s1` it was > 6 µM.

Regarding `CN(C(=O)c1ccccc1)c1ccc2c(c1)nc(NC(=O)c1ccc(Oc3ccccc3)s1)n2CCC(N)=O`, the IC50 at Insulin receptor is > 6 µM. Take `CN(C(=O)c1ccccc1)c1ccc2c(c1)[nH]/c(=N\C(=O)c1cncs1)n2CCC(N)=O`: the IC50 was 130 nM in assay [1], 1.6 µM against Insulin receptor and > 5 µM in assay [3].

With `CN(C(=O)c1ccccc1)c1ccc2c(c1)[nH]/c(=N\C(=O)c1ccc(-c3ccccn3)s1)n2CCC(N)=O`, the IC50 at Insulin receptor is > 6 µM. Take `CN(C(=O)c1ccccc1)c1ccc2c(c1)[nH]/c(=N\C(=O)c1cocn1)n2CCC(N)=O`: the Ratio IC50 in assay [2] is > 1000.

For `CN(C(=O)c1ccccc1)c1ccc2c(c1)[nH]/c(=N\C(=O)c1ccc(-c3ccccc3)cc1)n2CCC(N)=O`, the IC50 on Insulin receptor is > 6 µM. The same measure, in the same setting: in the case of `CN(C(=O)c1ccccc1)c1ccc2c(c1)nc(NC(=O)c1ccc(OCc3ccccc3)s1)n2CCC(N)=O` it was > 6 µM; in that of `CN(C(=O)c1ccccc1)c1ccc2c(c1)nc(NC(=O)c1ccc(-c3nccs3)s1)n2CCC(N)=O`, > 6 µM. For the compound `CN(C(=O)c1ccccc1)c1ccc2c(c1)nc(NC(=O)c1ccc(-c3ccc(F)nc3)s1)n2CCC(N)=O`, at Insulin receptor, the half-inhibitory concentration (IC50) is > 6 µM. In the case of `CN(C(=O)c1ccccc1)c1ccc2c(c1)nc(NC(=O)c1ccno1)n2CCC(N)=O`, the 50% inhibitory concentration (IC50) at Insulin receptor was > 6 µM. For `CN(C(=O)c1ccccc1)c1ccc2c(c1)nc(NC(=O)c1cocn1)n2CCC(N)=O`, the half-maximal inhibitory concentration (IC50) in assay [1] was 170 nM; at Insulin receptor it was > 6 µM; in assay [3] it was > 5 µM. The like results for `CN(C(=O)c1ccccc1)c1ccc2c(c1)nc(NC(=O)c1ccc(Br)s1)n2CCC(N)=O` were, in that order, 15 nM, 0.63 µM and 0.1 µM. For the compound `CN(C(=O)c1ccccc1)c1ccc2c(c1)[nH]/c(=N\C(=O)c1ccc(-c3cccnc3)s1)n2CCC(N)=O`, the IC50 on Insulin receptor is > 6 µM. On the same count and under the same terms, then `CN(C(=O)c1ccccc1)c1ccc2c(c1)nc(NC(=O)c1ccc(-c3cocn3)s1)n2CCC(N)=O`, with > 6 µM; and `CN(C(=O)c1ccccc1)c1ccc2c(c1)nc(NC(=O)c1ccc(C(=O)c3ccccc3)s1)n2CCC(N)=O`, with > 6 µM; and `CN(C(=O)c1ccccc1)c1ccc2c(c1)[nH]/c(=N\C(=O)c1ncco1)n2CCC(N)=O`, with > 6 µM. Still for that read-out and setting: in the case of `CN(C(=O)c1ccccc1)c1ccc2c(c1)[nH]/c(=N\C(=O)c1ccc(N3CCCCC3)s1)n2CCC(N)=O` it was > 6 µM; in that of `CN(C(=O)c1ccccc1)c1ccc2c(c1)[nH]/c(=N\C(=O)c1ccc(-c3cnccn3)s1)n2CCC(N)=O`, > 6 µM.

The values are drawn from ChEMBL document CHEMBL1143295, “Discovery of potent inhibitors of interleukin-2 inducible T-cell kinase (ITK) through structure-based drug design” (Bioorg Med Chem Lett, 2009).
